According to ChEMBL document CHEMBL1154680, “Alkyl and dialkylaminoethyl derivatives of 5-amino-2-azabicyclo[3.2.2]nonanes and their antiplasmodial and antitrypanosomal activities” (Eur J Med Chem, 2010):

Key:
[1] = Selectivity index, ratio of IC50 for rat L6 cells to IC50 for chloroquine and pyrimethamine-resistant Plasmodium falciparum K1; type: toxicity, cell-based; conditions: read-out: Ratio IC50
[2] = Selectivity index, ratio of IC50 for rat L6 cells to IC50 for Trypanosoma brucei rhodesiense STIB 900; type: toxicity, cell-based; conditions: read-out: Ratio IC50
Plasmodium falciparum = experiment: Antiplasmodial activity against chloroquine and pyrimethamine-resistant Plasmodium falciparum K1 by microplate assay; type: functional, organism-based
[3] = tested on: Trypanosoma brucei rhodesiense; experiment: […] activity against Trypanosoma brucei rhodesiense STIB 900 by microplate assay; type: functional, organism-based
L6 = experiment: Cytotoxicity against rat L6 cells; type: cell-based

Row | SMILES | selectivity ratio [1] | selectivity ratio [2] | IC50 (Plasmodium falciparum) [µM] | IC50 [3] [µM] | IC50 (L6) [µM]
1 | Clc1ccc(C2CC3(N4CCCCC4)CCNC2C(c2ccc(Cl)cc2)C3)cc1 (stereo not given) | 17.6 | 125 | – | – | –
2 | Clc1ccc(C2CC3(N4CCCC4)CCNC2C(c2ccc(Cl)cc2)C3)cc1 (stereo not given) | 40.2 | 152 | – | – | –
3 | CN(C)C12CCNC(C(c3ccc(Cl)cc3)C1)C(c1ccc(Cl)cc1)C2 (stereo not given) | 21.3 | 143 | – | – | –
4 | CN(C)C12CCN(Cc3ccccc3)C(C(c3ccccc3)C1)C(c1ccccc1)C2 (racemic) | 12.2 | 5.2 | 0.6 | 1.41 | 7.33
5 | c1ccc(CN2CCC3(N4CCCC4)CC(c4ccccc4)C2C(c2ccccc2)C3)cc1 (racemic) | 5.67 | 5.17 | 0.82 | 0.9 | 4.65
6 | Clc1ccc(C2CC3(N4CCCC4)CCN(CCc4ccccc4)C2C(c2ccc(Cl)cc2)C3)cc1 (racemic) | 8.12 | 3.7 | 0.52 | 1.14 | 4.22
7 | CN1CCC2(N3CCCC3)CC(c3ccc(Cl)cc3)C1C(c1ccc(Cl)cc1)C2 (racemic) | 8.44 | 21 | 0.87 | 0.35 | 7.34
8 | c1ccc(CCN2CCC3(N4CCCC4)CC(c4ccccc4)C2C(c2ccccc2)C3)cc1 (racemic) | 3.84 | 3.97 | 0.96 | 0.93 | 3.69
9 | CN1CCC2(N(C)C)CC(c3ccccc3)C1C(c1ccccc1)C2 (racemic) | – | 61.9 | – | 1.76 | 109
10 | CN(C)C12CCN(CCN3CCCC3)C(C(c3ccccc3)C1)C(c1ccccc1)C2 (racemic) | 136 | 60.9 | 0.59 | 1.32 | 80.4
11 | c1ccc(CCN2CCC3(N4CCCCC4)CC(c4ccccc4)C2C(c2ccccc2)C3)cc1 (racemic) | 11.8 | 7 | 0.71 | 1.2 | 8.4
12 | CN1CCC2(N3CCCC3)CC(c3ccccc3)C1C(c1ccccc1)C2 (racemic) | 53.5 | 49.5 | 1.72 | 1.86 | 92.1
13 | CN(C)C12CCN(CCc3ccccc3)C(C(c3ccccc3)C1)C(c1ccccc1)C2 (racemic) | 38.3 | 8.07 | 0.12 | 0.57 | 4.6
14 | CN(C)C12CCN(CCc3ccccc3)C(C(c3ccc(Cl)cc3)C1)C(c1ccc(Cl)cc1)C2 (racemic) | 7.23 | 3.66 | 0.47 | 0.93 | 3.4
15 | c1ccc(C2CC3(N4CCCC4)CCN(CCN4CCCC4)C2C(c2ccccc2)C3)cc1 (racemic) | 116 | 17.2 | 0.5 | 3.38 | 58.2
16 | c1ccc(C2CC3(N4CCCCC4)CCN(CCN4CCCC4)C2C(c2ccccc2)C3)cc1 (racemic) | 1690 | 6.09 | 0.092 | 25.6 | 156
17 | Clc1ccc(C2CC3(N4CCCCC4)CCN(CCc4ccccc4)C2C(c2ccc(Cl)cc2)C3)cc1 (racemic) | 10.8 | 4.24 | 0.73 | 1.86 | 7.89
18 | C[C@@H]1CC[C@H]2[C@@H](C)C(=O)O[C@@H]3O[C@@]4(C)CC[C@@H]1[C@]32OO4 [ARTEMISININ] | – | – | 0.0064 | – | –
